CN(C/C=C/C#CC(C)(C)C)Cc1cccc2ccccc12.Cl
solubility (mole fraction)
Settings | 283.15 K | 288.15 K | 293.15 K | 298.15 K | 303.15 K | 308.15 K | 313.15 K | 318.15 K | 323.15 K
in DMSO | – | – | 0.0199 | 0.0226 | 0.0252 | 0.0284 | 0.0319 | 0.0354 | 0.0401
in acetonitrile | 0.0013 | 0.00153 | 0.00179 | 0.00213 | 0.00254 | 0.00304 | 0.00377 | 0.00455 | 0.00532
in cyclohexanol | – | – | – | – | 0.0381 | 0.048 | 0.0556 | 0.0654 | 0.0774
in ethanol | 0.0198 | 0.0222 | 0.0245 | 0.0298 | 0.0342 | 0.0414 | 0.0493 | 0.0572 | 0.0678
in isobutanol | 0.0101 | 0.0128 | 0.0159 | 0.0213 | 0.0276 | 0.0354 | 0.045 | 0.0559 | 0.0693
in isooctanol | 0.00196 | 0.00403 | 0.00498 | 0.00649 | 0.00867 | 0.0109 | 0.0143 | 0.0178 | 0.0221
in isopentanol | 0.0073 | 0.00942 | 0.0118 | 0.0149 | 0.0189 | 0.0242 | 0.0298 | 0.0389 | 0.0493
in isopropanol | 0.0031 | 0.00391 | 0.00487 | 0.00627 | 0.00831 | 0.0106 | 0.0144 | 0.0183 | 0.0245
in n-butanol | 0.0123 | 0.0168 | 0.0217 | 0.0251 | 0.0313 | 0.0377 | 0.0466 | 0.0568 | 0.0685
in n-hexanol | 0.00683 | 0.00916 | 0.0115 | 0.0148 | 0.0185 | 0.0229 | 0.0291 | 0.0373 | 0.0469
in n-pentanol | 0.0158 | 0.0208 | 0.0255 | 0.0304 | 0.0357 | 0.0428 | 0.0511 | 0.0601 | 0.0697
in n-propanol | 0.0194 | 0.0214 | 0.0233 | 0.027 | 0.0351 | 0.0427 | 0.0519 | 0.0615 | 0.0735
in sec-butanol | 0.0037 | 0.0047 | 0.00608 | 0.0077 | 0.00999 | 0.0133 | 0.0176 | 0.0227 | 0.0288
